Tests used:
[1] = biological target: Met (phospho-Met, HGF-stimulated PC-3 prostate cancer cells) (Homo sapiens (Human), UniProt P08581); test: Met autophosphorylation ELISA in PC-3 cells (Example F); format: cell-based; conditions: cellular activity; Met autophosphorylation ELISA in PC-3 cells; read-out: c-Met IC50
Summary of the method: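 PC-3 cells, serum-starved 3 h, were treated with compounds (8-point dose curve, 0.3% DMSO final) for 1 h, then stimulated with 100 ng/mL recombinant human HGF for 10 min. Lysate phospho-Met (panTyr) was quantified by sandwich ELISA; IC50 from 4-parameter logistic fit.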

[2] = biological target: KDR (phospho-KDR, VEGF165-stimulated HUVEC cells) (Homo sapiens (Human), UniProt P35968); test: KDR autophosphorylation ELISA in HUVEC cells (Example G); format: cell-based; conditions: cellular activity; KDR autophosphorylation ELISA in HUVEC cells
Summary of the method: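 Inhibition of VEGF165-driven KDR autophosphorylation is measured in primary human umbilical vein endothelial cells after 24 h serum deprivation. Compound preincubation lasts 1 h before a 5-minute challenge with 100 ng/mL ligand, and phosphorylated receptor is then measured by ELISA in the lysates.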

Met (phospho-Met, HGF-stimulated PC-3 prostate cancer cells), sequence (P08581 25-1390): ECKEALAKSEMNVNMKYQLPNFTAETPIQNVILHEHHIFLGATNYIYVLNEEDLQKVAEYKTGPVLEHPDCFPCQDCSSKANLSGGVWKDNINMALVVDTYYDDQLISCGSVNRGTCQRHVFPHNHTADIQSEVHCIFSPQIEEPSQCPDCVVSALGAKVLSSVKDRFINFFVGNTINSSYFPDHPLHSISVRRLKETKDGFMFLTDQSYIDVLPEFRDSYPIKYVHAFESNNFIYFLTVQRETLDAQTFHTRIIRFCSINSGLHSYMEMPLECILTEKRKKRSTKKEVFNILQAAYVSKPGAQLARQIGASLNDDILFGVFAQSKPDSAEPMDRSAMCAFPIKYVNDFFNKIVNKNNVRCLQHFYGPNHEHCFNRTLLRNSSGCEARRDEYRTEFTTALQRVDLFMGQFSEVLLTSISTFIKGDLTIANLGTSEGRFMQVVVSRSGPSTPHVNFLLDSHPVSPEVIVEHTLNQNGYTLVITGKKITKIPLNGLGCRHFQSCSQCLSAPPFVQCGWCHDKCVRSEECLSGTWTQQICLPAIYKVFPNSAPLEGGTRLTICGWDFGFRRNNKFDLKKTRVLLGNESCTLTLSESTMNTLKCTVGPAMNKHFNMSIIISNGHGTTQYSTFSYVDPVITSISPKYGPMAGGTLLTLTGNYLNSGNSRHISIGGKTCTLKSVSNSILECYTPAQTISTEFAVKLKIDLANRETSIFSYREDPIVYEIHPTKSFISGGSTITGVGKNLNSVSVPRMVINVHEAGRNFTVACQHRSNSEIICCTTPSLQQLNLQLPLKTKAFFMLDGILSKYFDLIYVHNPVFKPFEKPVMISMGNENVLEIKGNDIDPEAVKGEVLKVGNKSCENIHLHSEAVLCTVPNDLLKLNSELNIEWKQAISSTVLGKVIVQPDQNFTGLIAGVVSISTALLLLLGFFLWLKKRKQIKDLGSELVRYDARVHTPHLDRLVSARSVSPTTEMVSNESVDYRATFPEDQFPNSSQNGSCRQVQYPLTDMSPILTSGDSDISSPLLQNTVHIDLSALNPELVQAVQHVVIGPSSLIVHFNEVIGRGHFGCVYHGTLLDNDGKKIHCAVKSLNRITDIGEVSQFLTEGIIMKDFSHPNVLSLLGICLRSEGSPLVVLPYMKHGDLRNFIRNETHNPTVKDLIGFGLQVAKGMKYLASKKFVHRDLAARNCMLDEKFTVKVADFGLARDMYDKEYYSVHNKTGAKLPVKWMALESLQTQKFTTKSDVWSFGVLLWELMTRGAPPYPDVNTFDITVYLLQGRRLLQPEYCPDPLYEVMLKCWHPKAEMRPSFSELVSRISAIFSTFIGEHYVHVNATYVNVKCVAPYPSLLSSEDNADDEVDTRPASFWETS
KDR (phospho-KDR, VEGF165-stimulated HUVEC cells), sequence (P35968 20-1356): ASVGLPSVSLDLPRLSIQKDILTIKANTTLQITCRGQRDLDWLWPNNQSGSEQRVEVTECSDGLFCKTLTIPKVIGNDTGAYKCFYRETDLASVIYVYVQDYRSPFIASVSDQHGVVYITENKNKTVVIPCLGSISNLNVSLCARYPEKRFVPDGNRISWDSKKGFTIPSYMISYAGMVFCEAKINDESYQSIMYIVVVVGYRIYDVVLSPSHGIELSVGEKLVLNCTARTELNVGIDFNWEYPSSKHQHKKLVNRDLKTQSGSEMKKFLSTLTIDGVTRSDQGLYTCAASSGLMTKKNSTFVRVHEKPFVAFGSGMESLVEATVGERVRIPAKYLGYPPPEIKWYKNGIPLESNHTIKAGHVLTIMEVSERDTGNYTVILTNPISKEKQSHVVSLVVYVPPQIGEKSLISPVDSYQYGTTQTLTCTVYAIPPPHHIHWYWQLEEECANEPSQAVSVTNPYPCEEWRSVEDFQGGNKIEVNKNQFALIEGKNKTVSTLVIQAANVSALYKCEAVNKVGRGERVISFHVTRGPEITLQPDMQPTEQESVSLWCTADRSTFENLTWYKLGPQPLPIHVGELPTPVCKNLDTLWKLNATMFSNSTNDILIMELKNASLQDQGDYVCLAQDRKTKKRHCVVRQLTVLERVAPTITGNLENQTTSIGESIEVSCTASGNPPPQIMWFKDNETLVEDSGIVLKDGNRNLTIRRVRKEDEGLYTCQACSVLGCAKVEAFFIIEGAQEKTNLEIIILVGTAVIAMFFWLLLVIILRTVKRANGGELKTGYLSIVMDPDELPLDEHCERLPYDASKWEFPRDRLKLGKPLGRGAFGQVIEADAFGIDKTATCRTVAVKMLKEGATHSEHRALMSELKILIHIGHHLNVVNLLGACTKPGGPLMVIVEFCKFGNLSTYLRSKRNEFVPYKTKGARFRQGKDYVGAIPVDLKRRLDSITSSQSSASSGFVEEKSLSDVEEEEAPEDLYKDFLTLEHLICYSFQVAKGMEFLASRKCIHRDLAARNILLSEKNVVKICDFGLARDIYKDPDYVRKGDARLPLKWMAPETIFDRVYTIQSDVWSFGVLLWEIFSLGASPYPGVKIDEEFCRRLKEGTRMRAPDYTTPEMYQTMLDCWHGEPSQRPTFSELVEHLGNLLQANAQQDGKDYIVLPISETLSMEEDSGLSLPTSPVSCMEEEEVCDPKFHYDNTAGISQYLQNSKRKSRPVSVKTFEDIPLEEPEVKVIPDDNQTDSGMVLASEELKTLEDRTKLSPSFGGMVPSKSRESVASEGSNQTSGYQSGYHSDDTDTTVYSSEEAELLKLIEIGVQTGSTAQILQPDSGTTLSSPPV

SMILES	IC50 [1] [nM]	IC50 [2] [nM]
COc1cc2nccc(Oc3ccc(NC(=O)c4cn(-c5ccn(C)n5)cc(-c5ccc(F)cc5)c4=O)cc3F)c2nc1OC [Compound 53, N-[4-[(6,7-Dimethoxy-1,5-naphthyridin-4-yl)oxy]-3-fluorophenyl]-5-(4-fluorophenyl)-1-(1-methylpyrazol-3-yl)-4-oxopyridine-3-carboxamide]	< 100	> 300
COc1cc2nccc(Oc3ccc(NC(=O)c4cn(C)c(C)c(-c5ccc(F)cc5)c4=O)cc3F)c2nc1OC [Compound 58, N-[4-[(6,7-Dimethoxy-1,5-naphthyridin-4-yl)oxy]-3-fluorophenyl]-5-(4-fluorophenyl)-1,6-dimethyl-4-oxopyridine-3-carboxamide]	< 100	< 100
COc1cc2nccc(Oc3ccc(NC(=O)c4cn(C5(C(F)(F)F)CC5)cc(-c5ccc(F)cc5)c4=O)cc3F)c2nc1OC [Compound 59, N-[4-[(6,7-Dimethoxy-1,5-naphthyridin-4-yl)oxy]-3-fluorophenyl]-5-(4-fluorophenyl)-4-oxo-1-[1-(trifluoromethyl)cyclopropyl]pyridine-3-carboxamide]	< 100	> 300
COc1cc2nccc(Oc3ccc(NC(=O)c4cn(-c5cnn(C(F)F)c5)cc(-c5ccc(F)cc5)c4=O)cc3F)c2nc1OC [Compound 60, 1-[1-(Difluoromethyl)pyrazol-4-yl]-N-[4-[(6,7-dimethoxy-1,5-naphthyridin-4-yl)oxy]-3-fluorophenyl]-5-(4-fluorophenyl)-4-oxopyridine-3-carboxamide]	< 100	> 300
COc1cc2nccc(Oc3ccc(NC(=O)c4cn(-c5cc[nH]n5)cc(-c5ccc(F)cc5)c4=O)cc3F)c2nc1OC [Compound 61, N-[4-[(6,7-Dimethoxy-1,5-naphthyridin-4-yl)oxy]-3-fluorophenyl]-5-(4-fluorophenyl)-4-oxo-1-(1H-pyrazol-3-yl)pyridine-3-carboxamide]	< 100	> 300
COc1cnc2c(Oc3ccc(NC(=O)c4cnc(C)c(-c5ccc(F)cc5)c4O)cc3F)ccnc2c1 [Compound 64, N-[3-Fluoro-4-[(7-methoxy-1,5-naphthyridin-4-yl)oxy]phenyl]-5-(4-fluorophenyl)-4-hydroxy-6-methylpyridine-3-carboxamide]	< 100	< 100
COc1cnc2c(Oc3ccc(NC(=O)c4c(C)nc(C)c(-c5ccc(F)cc5)c4O)cc3F)ccnc2c1 [Compound 66, N-[3-Fluoro-4-[(7-methoxy-1,5-naphthyridin-4-yl)oxy]phenyl]-5-(4-fluorophenyl)-4-hydroxy-2,6-dimethylpyridine-3-carboxamide]	< 100	< 100
COCCOc1nc2c(Oc3ccc(NC(=O)c4cnc(C)c(-c5ccc(F)cc5)c4O)cc3F)ccnc2cc1OC [Compound 68, N-[3-Fluoro-4-[[7-methoxy-6-(2-methoxyethoxy)-1,5-naphthyridin-4-yl]oxy]phenyl]-5-(4-fluorophenyl)-4-hydroxy-6-methylpyridine-3-carboxamide]	< 100	< 100
COc1ccc2nccc(Oc3ccc(NC(=O)c4c(C)nc(C)c(-c5ccc(F)cc5C)c4O)cc3F)c2n1 [Compound 70, N-[3-Fluoro-4-[(6-methoxy-1,5-naphthyridin-4-yl)oxy]phenyl]-5-(4-fluoro-2-methylphenyl)-4-hydroxy-2,6-dimethylpyridine-3-carboxamide]	< 100	< 100
COc1cc2nccc(Oc3ccc(NC(=O)c4cn(C)c(CF)c(-c5ccc(F)cc5)c4=O)cc3F)c2nc1OC [Compound 73, N-[4-[(6,7-Dimethoxy-1,5-naphthyridin-4-yl)oxy]-3-fluorophenyl]-6-(fluoromethyl)-5-(4-fluorophenyl)-1-methyl-4-oxopyridine-3-carboxamide]	< 100	< 100
CNc1c(-c2ccc(F)cc2)c(=O)c(C(=O)Nc2ccc(Oc3ccnc4cc(OC)c(OC)nc34)c(F)c2)cn1C [Compound 76, N-[4-[(6,7-Dimethoxy-1,5-naphthyridin-4-yl)oxy]-3-fluorophenyl]-5-(4-fluorophenyl)-1-methyl-6-(methylamino)-4-oxopyridine-3-carboxamide]	< 100	< 100
COc1cc2nccc(Oc3ccc(NC(=O)c4cn(C)c(C#N)c(-c5ccc(F)cc5)c4=O)cc3F)c2nc1OC [Compound 77, 6-Cyano-N-[4-[(6,7-dimethoxy-1,5-naphthyridin-4-yl)oxy]-3-fluorophenyl]-5-(4-fluorophenyl)-1-methyl-4-oxopyridine-3-carboxamide]	< 100	> 300

Other lines, results leading:

IC50 [1] [nM]	IC50 [2] [nM]	SMILES
< 100	> 300	COc1cc2nccc(Oc3ccc(NC(=O)c4cn(C(C)(C)C)cc(-c5ccc(F)cc5)c4=O)cc3F)c2nc1OC [Compound 48, 1-tert-Butyl-N-[4-[(6,7-dimethoxy-1,5-naphthyridin-4-yl)oxy]-3-fluorophenyl]-5-(4-fluorophenyl)-4-oxopyridine-3-carboxamide]
< 100	> 300	COc1cc2nccc(Oc3ccc(NC(=O)c4cn(-c5cn[nH]c5)cc(-c5ccc(F)cc5)c4=O)cc3F)c2nc1OC [Compound 62, N-[4-[(6,7-Dimethoxy-1,5-naphthyridin-4-yl)oxy]-3-fluorophenyl]-5-(4-fluorophenyl)-4-oxo-1-(1H-pyrazol-4-yl)pyridine-3-carboxamide]
< 100	< 100	CCn1cc(C(=O)Nc2ccc(Oc3ccnc4cc(OC)c(OC)nc34)c(F)c2)c(=O)c(-c2ccc(F)cc2)c1C [Compound 63, N-[4-[(6,7-Dimethoxy-1,5-naphthyridin-4-yl)oxy]-3-fluorophenyl]-1-ethyl-5-(4-fluorophenyl)-6-methyl-4-oxopyridine-3-carboxamide]
< 100	< 100	COc1cc2nccc(Oc3ccc(NC(=O)c4cn(C)c(C)c(-c5ccc(F)cc5)c4=O)cc3)c2nc1OC [Compound 65, N-[4-[(6,7-Dimethoxy-1,5-naphthyridin-4-yl)oxy]phenyl]-5-(4-fluorophenyl)-1,6-dimethyl-4-oxopyridine-3-carboxamide]
< 100	< 100	COc1ccc2nccc(Oc3ccc(NC(=O)c4c(C)nc(C)c(-c5ccc(F)cc5)c4O)cc3F)c2n1 [Compound 67, N-[3-Fluoro-4-[(6-methoxy-1,5-naphthyridin-4-yl)oxy]phenyl]-5-(4-fluorophenyl)-4-hydroxy-2,6-dimethylpyridine-3-carboxamide]
< 100	< 100	COc1cc2nccc(Oc3ccc(NC(=O)c4cnc(C)c(-c5ccc(F)cc5C)c4O)cc3F)c2nc1OC [Compound 69, N-[4-[(6,7-Dimethoxy-1,5-naphthyridin-4-yl)oxy]-3-fluorophenyl]-5-(4-fluoro-2-methylphenyl)-4-hydroxy-6-methylpyridine-3-carboxamide]
< 100	< 100	COc1cc2nccc(Oc3ccc(NC(=O)c4cnc(CO)c(-c5ccc(F)cc5)c4O)cc3F)c2nc1OC [Compound 71, N-[4-[(6,7-Dimethoxy-1,5-naphthyridin-4-yl)oxy]-3-fluorophenyl]-5-(4-fluorophenyl)-4-hydroxy-6-(hydroxymethyl)pyridine-3-carboxamide]
< 100	100 to 300	COc1cc2nccc(Oc3ccc(NC(=O)c4cn(C)c(CO)c(-c5ccc(F)cc5)c4=O)cc3F)c2nc1OC [Compound 72, N-[4-[(6,7-Dimethoxy-1,5-naphthyridin-4-yl)oxy]-3-fluorophenyl]-5-(4-fluorophenyl)-6-(hydroxymethyl)-1-methyl-4-oxopyridine-3-carboxamide]
< 100	100 to 300	COc1cc2nccc(Oc3ccc(NC(=O)c4cn(CC(F)(F)F)c(C)c(-c5ccc(F)cc5)c4=O)cc3F)c2nc1OC [Compound 74, N-[4-[(6,7-Dimethoxy-1,5-naphthyridin-4-yl)oxy]-3-fluorophenyl]-5-(4-fluorophenyl)-6-methyl-4-oxo-1-(2,2,2-trifluoroethyl)pyridine-3-carboxamide]
< 100	< 100	COc1cc2nccc(Oc3ccc(NC(=O)c4cn(C)c(C)c(-c5ccc(F)cc5C)c4=O)cc3F)c2nc1OC [Compound 75, N-[4-[(6,7-Dimethoxy-1,5-naphthyridin-4-yl)oxy]-3-fluorophenyl]-5-(4-fluoro-2-methylphenyl)-1,6-dimethyl-4-oxopyridine-3-carboxamide]
< 100	100 to 300	COc1cc2nccc(Oc3ccc(NC(=O)c4cn(C)c(OC)c(-c5ccc(F)cc5)c4=O)cc3F)c2nc1OC [Compound 78, N-[4-[(6,7-Dimethoxy-1,5-naphthyridin-4-yl)oxy]-3-fluorophenyl]-5-(4-fluorophenyl)-6-methoxy-1-methyl-4-oxopyridine-3-carboxamide]
< 100	< 100	COc1cnc2c(Oc3ccc(NC(=O)c4c(C)ncc(-c5ccc(F)cc5)c4O)cc3F)ccnc2c1 [Compound 80, N-[3-Fluoro-4-[(7-methoxy-1,5-naphthyridin-4-yl)oxy]phenyl]-5-(4-fluorophenyl)-4-hydroxy-2-methylpyridine-3-carboxamide]
< 100	< 100	COc1cc2nccc(Oc3ccc(NC(=O)c4c(C)n(C)cc(-c5ccc(F)cc5)c4=O)cc3F)c2nc1OC [Compound 81, N-[4-[(6,7-Dimethoxy-1,5-naphthyridin-4-yl)oxy]-3-fluorophenyl]-5-(4-fluorophenyl)-1,2-dimethyl-4-oxopyridine-3-carboxamide]
